Laboratory results taken from patent US6623933B1 (priority 1999, dated 2003).
Like-named read-outs stand apart in the source and are kept apart here.

Columns and labels:
NR1/NR2C (NR1100) = NR1/NR2C (NR1100) (Rattus norvegicus, UniProt P35439+Q00961); conditions: NR1/NR2C; for EC50: read-out: agonist EC50
Description: (§5) Plasmids containing the NR1100 (NR1G) and NR2A cDNA inserts were kindly provided by Dr. Nakanishi (Kyoto University Faculty of Medicine, Kyoto, Japan). Plasmids containing the NR2B, NR2C and NR2D cDNA inserts were kindly provided by Dr. P. Seeburg (Heidelberg University, Heidelberg, Germany). Plasmids were linearized with appropriate restriction enzyme prior to in vitro transcription using the Message Machine kit (Ambion, Inc., Austin, Tex.).
(§6) Female, oocyte-positive Xenopus laevis frogs were purchased from Xenopus I (Dexter, Mich.). […] Oocytes were injected with 50 nL of RNA solutions using an electronic microinjector (Drummond Inc., Broomall, Pa.). […] The injected oocytes were used for experiments following 1-5 days of incubation in Barth's solution at 18-20° C.
(§7) The microelectrodes were fabricated from borosilicate glass capillaries with a programmed puller (Sutter Instrument Co., Calif.). Microelectrode resistance was 1-3 MΩ_when filled with 3 M KCl.
(§8) Except where otherwise stated, oocytes were clamped at a holding potential of −70 mV during data acquisition. The membrane current was filtered at 500 Hz and sampled at 100 Hz. Drugs were applied using a gravity-driven external perfusion system. The working volume of the recording chamber was 30 μl and the rate of the perfusion was 50 μl/sec. The drug application lasted 10 sec and was followed by 60 s wash. Data acquisition and external perfusion were controlled using custom-written software implemented in the SuperScope II development environment (GW Instruments, Mass.). All experiments were performed at room temperature of 22-24° C. Peak or steady-state current measurements were normalized and expressed as a fraction of the peak or steady-state control current measurements, which were performed before and after application of every single concentration of agonists or steroids.
(§9) Concentration-response data were analyzed by nonlinear regress ion using the logistic equation Response=Emax/(1+(EC50/c)^nH), where c is concentration, Emaxis the maximum response, nHis the Hill coefficient. The data are presented as mean±SEM. EC50values are averaged as logarithms (De Lean et al., Am. J. Physiol. 235: E97-E102 (1978))±the SEM of the log EC50. […] The pooled data were simultaneously fitted to the logistic equation, either with Emax and EC50 constrained to be identical in the presence and absence of PS, or allowing one or both to vary independently. […] This was regarded as indicating a significant treatment effect of PS, but the change in EC50and Emaxwas not considered significant. […] No attempt was made to test the generally small changes in nHfor statistical significance.

NR1100/NR2A = NR1100/NR2A (Rattus norvegicus, UniProt P35439+Q00959); set-up: agonist nHill / agonist Emax: dose or concentration left out as unconfirmed; conditions: NR1100/NR2A
NR1011/NR2A = NR1011/NR2A (Rattus norvegicus, UniProt P35439+Q00959); set-up: agonist Emax: dose or concentration left out as unconfirmed; conditions: NR1011/NR2A
NR1/NR2B (NR1100) = NR1/NR2B (NR1100) (Rattus norvegicus, UniProt P35439+Q00960)
Description: as §5, §6, §7, §8, §9

NR1101/NR2A = NR1101/NR2A (Rattus norvegicus, UniProt P35439+Q00959); set-up: agonist Emax: dose or concentration left out as unconfirmed; conditions: NR1101/NR2A
NR1111/NR2A = NR1111/NR2A (Rattus norvegicus, UniProt P35439+Q00959); set-up: agonist Emax: dose or concentration left out as unconfirmed; conditions: NR1111/NR2A
NR1001/NR2A = NR1001/NR2A (Rattus norvegicus, UniProt P35439+Q00959); set-up: agonist Emax: dose or concentration left out as unconfirmed; conditions: NR1001/NR2A
NR1010/NR2A = NR1010/NR2A (Rattus norvegicus, UniProt P35439+Q00959); set-up: agonist nHill / agonist Emax: dose or concentration left out as unconfirmed; conditions: NR1010/NR2A
NR1000/NR2A = NR1000/NR2A (Rattus norvegicus, UniProt P35439+Q00959); set-up: agonist Emax: dose or concentration left out as unconfirmed; conditions: NR1000/NR2A
NR1/NR2A (NR1100) = NR1/NR2A (NR1100) (Rattus norvegicus, UniProt P35439+Q00959)
Description: as §5, §6, §7, §8, §9

NR1/NR2D (NR1100) = NR1/NR2D (NR1100) (Rattus norvegicus, UniProt P35439+Q62645)
Description: as §5, §6, §7, §8, §9

GluR6 kainate receptor = target: T1, GluR6 kainate receptor (Rattus norvegicus, UniProt P42260); assay: Kainate-induced currents, Xenopus oocytes injected with GluR6 cRNA; format: cell-based; conditions: GluR6; steroid 100 μM; 10 μM kainate; −100 mV
T1 construct: expressed in transfected cells; host or cells: Xenopus oocytes injected with GluR6 cRNA (concanavalin A treated)
Description: (§1) Plasmids were obtained from the following individuals: Dr. Suzanne Zukin (Albert Einstein College of Medicine, Bronx, N.Y.), NR1100; Dr. Shigetada Nakanishi (Kyoto University Faculty of Medicine, Kyoto, Japan), NR2A; Dr. Stephen Heinemann (Salk Institute, San Diego, Calif.), GluR1 (flop), GluR3 (flop), and GluR6. Plasmids were linearized with BamH1 (NR1100), XhoI (NR2A, GluR1, GluR3) or XbaI (GluR6) prior to in vitro transcription with T3 (GluR1, GluR3, GluR6) or T7 (NR1100, NR2A) RNA polymerase using the Message Machine kit (Ambion, Austin, Tex.). […] RNA solutions (50-70 nl) were injected into oocytes for delivery of NR1100 (5 ng), NR1100:NR2A (1:10 ng), GluR1 (5 ng). GluR3 (5 ng), or GluR6 (20 ng). Oocytes were incubated in ND96 at 18-20° C. for 3-7 days prior to electrophysiological recording.
(§2) Steroid solutions were prepared as 70-100 mM frozen stocks in dimethyl sulfoxide (DMSO). The final DMSO concentration of all recording solutions was between 0.1% to 0.5% and was constant within an experiment.
(§3) Perfusion control and data acquisition were carried out using an automated oocyte electrophysiology workstation that was developed for the rapid collection of concentration-response data and real-time waveform analysis (Yaghoubi et al., Soc. Neurosci. Abstr. 20: 1109 (1995)). This system is implemented on a Macintosh IIci computer (Apple Computer, Cupertino, Calif.) equipped with MacA-DIOS II data acquisition and control hardware (GW Instruments, Somerville, Mass.). Drug application is controlled by the computer through a series of valves, using custom-written software based on the SuperScope II development environment, improving the efficiency and reproducibility of data collection. Experiments were carried out using an Axoclamp-2A voltage clamp amplifier (Axon Instruments, Foster City, Calif.) in two-electrode voltage clamp mode. Intracellular microelectrodes (1-3 MΩ) were filled with 3 M KCl. […] Membrane potential was clamped at −60 to −70 mV and stepped to −100 mV at the start of data acquisition unless otherwise stated. […] Current and voltage recordings were digitized at 100 Hz for analysis. GluR6 injected oocytes were treated for 10 min with 10 μg/ml concanavalin A to prevent fast desensitization.
(§4) Results are expressed as mean±S.E.M. Statistical comparisons were made using Student's t-test.

GluR3 AMPA receptor = target: T2, GluR3 AMPA receptor (Rattus norvegicus, UniProt P19492); assay: Kainate-induced currents, Xenopus oocytes injected with GluR3 cRNA; format: cell-based; conditions: GluR3; steroid 100 μM; 100 μM kainate; −100 mV
T2 construct: expressed in transfected cells; host or cells: Xenopus oocytes injected with GluR3 cRNA
Description: as §1, §2, §3, §4

GluR1 AMPA receptor = target: T3, GluR1 AMPA receptor (Rattus norvegicus, UniProt P19490); assay: Kainate-induced currents, Xenopus oocytes injected with GluR1 cRNA; format: cell-based; conditions: GluR1; steroid 100 μM; 100 μM kainate; −100 mV
T3 construct: expressed in transfected cells; host or cells: Xenopus oocytes injected with GluR1 cRNA
Description: as §1, §2, §3, §4

[1] = tested on: primary cultures of rat hippocampal neurons; assay: NMDA-induced neuronal death, trypan blue exclusion; format: cell-based; conditions: DNQX; 100 μM SR-95531; not shown
Protocol: Principally neuronal cultures were prepared from hippocampal tissue of fetal Sprague-Dawley rats on day 18 of embryonic development, as previously described (Brewer et al., Brain Research 494: 65-74 (1989)). Briefly, hippocampal cells were dissociated by trituration in Ca^2+/Mg^2+-free Hank's basic salt solution (Gibco) supplemented with 4.2 mM bicarbonate, 1 mM sodium pyruvate, 20 mM HEPES, 3 mg/ml bovine serum albumin (BSA). Dissociated cells were then pelleted by centrifugation (500×g, 4 min). […] Cells were then plated onto poly-L-lysine-coated 24-well culture dishes (Nunclon) at a density of 15,000 cell/cm^2 and maintained in a humidified atmosphere containing 5% CO2/95% air at 37° C. After 48 h, nonneuronal cell division was inhibited by a 48 h exposure to 1 μM cytosine arabinoside. Cultures were subsequently maintained in serum-free DMEM plus defined components and were used for experiments 16 to 24 days after plating.
Steroids were dissolved in DMSO (0.5% final concentration), and all treatment media contained 0.5% DMSO. […] Following exposure, cultures were washed 3 times with medium from sister cultures (conditioned medium). After the final wash, steroid or vehicle was reintroduced. Drugs were added to cultures in 25 μl of conditioned medium to yield a final volume of 0.25 ml per well. Except where otherwise noted, final steroid concentration was 100 μM.
The ability of neurons to exclude trypan blue was used to quantitate cell viability (Dawson et al., Proc Natl Acad Sci USA 88: 6368-6371 (1991)). […] Cultures were then fixed with 4% paraformaldehyde in PBS for 30 min, at whichtime the fixative was replaced with PBS. The number of stained and unstained neurons were counted in 4 high-power fields per culture well, using an inverted phase contrast microscope under both bright field and phase contrast settings. Experiments were performed in triplicate, and all assessments were made with the experimenter blind to the treatment of each culture well. Percent cell death is expressed as follows: (number of trypan blue stained neurons)/(total number of neurons)×100%.
All data are expressed as mean±standard error of the mean. Statistical significance was evaluated using 95% confidence limits unless otherwise noted.

Chain of NR1/NR2B (NR1100) (Q00960 27-1482, other chains not shown): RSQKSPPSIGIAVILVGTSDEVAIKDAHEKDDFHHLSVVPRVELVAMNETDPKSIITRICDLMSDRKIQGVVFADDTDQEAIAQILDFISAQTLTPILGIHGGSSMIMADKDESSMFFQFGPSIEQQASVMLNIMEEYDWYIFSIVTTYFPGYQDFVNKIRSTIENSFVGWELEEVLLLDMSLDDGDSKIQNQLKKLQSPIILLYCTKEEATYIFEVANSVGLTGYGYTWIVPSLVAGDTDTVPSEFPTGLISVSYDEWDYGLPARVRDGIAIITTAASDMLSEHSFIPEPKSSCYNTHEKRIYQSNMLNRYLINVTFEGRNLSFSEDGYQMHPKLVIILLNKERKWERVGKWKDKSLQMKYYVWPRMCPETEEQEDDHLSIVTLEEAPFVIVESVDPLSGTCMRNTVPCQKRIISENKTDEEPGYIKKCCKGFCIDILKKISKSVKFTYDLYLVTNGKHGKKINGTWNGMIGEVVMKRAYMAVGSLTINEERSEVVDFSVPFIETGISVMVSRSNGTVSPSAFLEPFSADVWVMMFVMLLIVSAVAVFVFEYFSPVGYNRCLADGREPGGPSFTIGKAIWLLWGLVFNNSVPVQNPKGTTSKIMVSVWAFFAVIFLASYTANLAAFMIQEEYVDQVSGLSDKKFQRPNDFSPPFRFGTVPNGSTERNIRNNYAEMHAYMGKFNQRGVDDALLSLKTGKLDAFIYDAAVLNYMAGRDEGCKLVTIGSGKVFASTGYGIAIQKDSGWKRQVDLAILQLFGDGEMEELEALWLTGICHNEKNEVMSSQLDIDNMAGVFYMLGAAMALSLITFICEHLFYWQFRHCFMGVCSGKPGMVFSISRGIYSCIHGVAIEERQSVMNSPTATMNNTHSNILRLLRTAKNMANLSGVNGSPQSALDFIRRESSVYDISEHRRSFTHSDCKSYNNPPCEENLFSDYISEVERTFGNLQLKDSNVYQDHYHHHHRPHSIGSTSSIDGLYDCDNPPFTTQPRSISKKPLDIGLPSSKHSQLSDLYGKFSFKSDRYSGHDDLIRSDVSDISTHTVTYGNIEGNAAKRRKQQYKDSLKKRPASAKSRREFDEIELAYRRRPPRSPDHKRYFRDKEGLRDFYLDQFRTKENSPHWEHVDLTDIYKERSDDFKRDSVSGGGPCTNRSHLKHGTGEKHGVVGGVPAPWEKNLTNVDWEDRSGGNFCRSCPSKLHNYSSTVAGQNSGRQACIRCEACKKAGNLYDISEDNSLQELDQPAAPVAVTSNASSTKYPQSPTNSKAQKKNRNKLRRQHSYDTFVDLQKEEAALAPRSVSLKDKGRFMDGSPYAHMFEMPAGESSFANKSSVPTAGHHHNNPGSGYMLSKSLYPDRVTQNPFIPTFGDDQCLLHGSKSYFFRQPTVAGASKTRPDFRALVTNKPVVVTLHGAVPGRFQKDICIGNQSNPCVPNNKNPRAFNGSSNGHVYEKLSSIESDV
Chain of NR1/NR2D (NR1100) (Q62645 28-1323, other chains not shown): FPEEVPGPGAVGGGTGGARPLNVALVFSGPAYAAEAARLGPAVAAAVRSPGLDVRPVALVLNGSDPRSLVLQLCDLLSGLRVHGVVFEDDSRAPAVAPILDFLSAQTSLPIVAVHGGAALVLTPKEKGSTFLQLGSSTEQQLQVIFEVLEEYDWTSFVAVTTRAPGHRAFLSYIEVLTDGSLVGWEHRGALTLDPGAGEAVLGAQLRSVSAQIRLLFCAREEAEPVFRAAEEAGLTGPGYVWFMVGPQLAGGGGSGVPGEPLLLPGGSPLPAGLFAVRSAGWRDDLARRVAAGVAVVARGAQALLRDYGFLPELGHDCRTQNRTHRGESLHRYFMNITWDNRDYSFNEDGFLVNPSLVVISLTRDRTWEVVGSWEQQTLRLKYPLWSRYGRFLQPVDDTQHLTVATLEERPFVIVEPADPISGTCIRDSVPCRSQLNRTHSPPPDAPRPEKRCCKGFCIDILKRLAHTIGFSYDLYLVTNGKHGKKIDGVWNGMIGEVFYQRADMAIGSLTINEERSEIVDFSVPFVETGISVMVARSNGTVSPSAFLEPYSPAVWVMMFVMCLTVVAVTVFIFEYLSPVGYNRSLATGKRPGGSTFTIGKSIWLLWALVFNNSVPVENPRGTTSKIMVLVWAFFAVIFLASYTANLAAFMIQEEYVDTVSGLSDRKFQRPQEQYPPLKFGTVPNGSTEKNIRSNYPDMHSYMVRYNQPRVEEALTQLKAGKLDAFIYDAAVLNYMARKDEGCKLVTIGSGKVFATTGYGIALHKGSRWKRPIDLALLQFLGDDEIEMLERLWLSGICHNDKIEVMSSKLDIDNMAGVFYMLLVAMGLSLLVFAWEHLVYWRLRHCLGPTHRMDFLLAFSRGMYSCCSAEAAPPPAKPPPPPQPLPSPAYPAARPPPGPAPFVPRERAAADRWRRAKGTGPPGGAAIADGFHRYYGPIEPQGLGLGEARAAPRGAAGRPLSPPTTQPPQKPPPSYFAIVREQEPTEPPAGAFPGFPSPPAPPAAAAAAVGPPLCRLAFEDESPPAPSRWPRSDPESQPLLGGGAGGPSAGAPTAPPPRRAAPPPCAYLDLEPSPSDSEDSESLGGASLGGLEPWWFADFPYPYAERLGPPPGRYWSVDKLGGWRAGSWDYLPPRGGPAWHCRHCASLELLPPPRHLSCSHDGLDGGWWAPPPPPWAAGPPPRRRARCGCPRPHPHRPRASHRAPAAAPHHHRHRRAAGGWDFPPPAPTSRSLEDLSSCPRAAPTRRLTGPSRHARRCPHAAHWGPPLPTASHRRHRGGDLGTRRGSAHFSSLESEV
Chain of NR1/NR2C (NR1100) (Q00961 20-1237, other chains not shown): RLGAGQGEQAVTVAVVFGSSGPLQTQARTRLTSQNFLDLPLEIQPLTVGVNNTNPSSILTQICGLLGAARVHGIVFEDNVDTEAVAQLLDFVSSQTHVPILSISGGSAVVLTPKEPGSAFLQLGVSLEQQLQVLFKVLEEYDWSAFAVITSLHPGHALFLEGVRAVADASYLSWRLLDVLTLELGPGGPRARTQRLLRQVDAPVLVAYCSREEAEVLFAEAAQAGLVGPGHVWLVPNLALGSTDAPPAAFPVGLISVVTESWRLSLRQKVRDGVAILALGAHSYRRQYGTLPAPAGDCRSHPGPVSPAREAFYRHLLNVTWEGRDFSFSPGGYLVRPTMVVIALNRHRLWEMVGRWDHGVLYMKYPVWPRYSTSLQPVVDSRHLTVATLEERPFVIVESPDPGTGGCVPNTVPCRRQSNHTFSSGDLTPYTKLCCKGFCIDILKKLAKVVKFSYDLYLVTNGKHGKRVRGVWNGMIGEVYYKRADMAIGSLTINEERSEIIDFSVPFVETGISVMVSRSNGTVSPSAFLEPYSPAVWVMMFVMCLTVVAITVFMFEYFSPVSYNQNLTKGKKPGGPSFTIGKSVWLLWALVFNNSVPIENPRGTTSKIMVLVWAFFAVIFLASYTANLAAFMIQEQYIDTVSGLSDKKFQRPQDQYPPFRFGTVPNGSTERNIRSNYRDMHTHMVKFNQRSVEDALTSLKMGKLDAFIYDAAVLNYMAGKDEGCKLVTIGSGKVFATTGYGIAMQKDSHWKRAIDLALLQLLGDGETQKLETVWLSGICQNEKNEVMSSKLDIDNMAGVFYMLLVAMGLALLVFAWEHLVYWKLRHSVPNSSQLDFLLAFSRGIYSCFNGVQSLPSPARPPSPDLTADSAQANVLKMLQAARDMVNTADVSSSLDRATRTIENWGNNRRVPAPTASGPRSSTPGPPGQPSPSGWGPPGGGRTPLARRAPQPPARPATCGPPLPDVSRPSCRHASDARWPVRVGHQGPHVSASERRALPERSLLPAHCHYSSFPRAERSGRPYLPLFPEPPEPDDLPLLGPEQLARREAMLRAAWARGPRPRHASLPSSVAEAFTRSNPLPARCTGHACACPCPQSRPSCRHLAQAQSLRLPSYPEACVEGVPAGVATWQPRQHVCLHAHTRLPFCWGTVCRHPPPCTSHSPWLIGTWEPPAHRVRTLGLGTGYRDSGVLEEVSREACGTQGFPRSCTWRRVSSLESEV
T3 sequence (P19490 19-907): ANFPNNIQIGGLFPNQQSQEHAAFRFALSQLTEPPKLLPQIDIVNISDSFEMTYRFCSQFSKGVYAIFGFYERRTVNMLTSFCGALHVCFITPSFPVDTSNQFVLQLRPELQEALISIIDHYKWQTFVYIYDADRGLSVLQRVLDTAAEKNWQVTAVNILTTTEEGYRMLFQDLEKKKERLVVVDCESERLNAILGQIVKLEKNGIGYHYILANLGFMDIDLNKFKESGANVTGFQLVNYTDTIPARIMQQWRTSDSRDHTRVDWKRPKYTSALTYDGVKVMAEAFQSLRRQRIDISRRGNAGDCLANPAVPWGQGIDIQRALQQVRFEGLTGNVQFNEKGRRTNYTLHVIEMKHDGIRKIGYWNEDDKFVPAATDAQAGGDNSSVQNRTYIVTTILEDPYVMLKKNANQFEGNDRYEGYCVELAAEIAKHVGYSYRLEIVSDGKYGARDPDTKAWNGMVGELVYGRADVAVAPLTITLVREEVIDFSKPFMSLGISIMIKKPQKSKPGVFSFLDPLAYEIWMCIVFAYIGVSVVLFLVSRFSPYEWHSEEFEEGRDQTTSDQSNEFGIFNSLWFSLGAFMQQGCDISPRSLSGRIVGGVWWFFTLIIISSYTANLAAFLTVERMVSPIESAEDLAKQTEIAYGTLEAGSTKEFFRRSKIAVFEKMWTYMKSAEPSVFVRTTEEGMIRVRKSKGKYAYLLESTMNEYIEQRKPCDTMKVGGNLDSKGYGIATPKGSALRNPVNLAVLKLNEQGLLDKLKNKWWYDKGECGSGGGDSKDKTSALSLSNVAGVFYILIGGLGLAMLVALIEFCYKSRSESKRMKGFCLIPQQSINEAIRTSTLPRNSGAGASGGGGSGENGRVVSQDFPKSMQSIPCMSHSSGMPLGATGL

Row | Compound | agonist Emax (NR1/NR2C (NR1100); +100 μM PS) | agonist Emax (NR1100/NR2A; absence of PS) | agonist Emax (NR1100/NR2A; presence) | agonist nHill (NR1100/NR2A; presence) | agonist Emax (NR1011/NR2A; presence of PS) | agonist Emax (NR1/NR2B (NR1100); +100 μM PS) | agonist nH (NR1/NR2B (NR1100); no PS) | agonist Emax (NR1101/NR2A; absence of PS) | agonist Emax (NR1101/NR2A; presence of PS) | agonist Emax (NR1111/NR2A; absence of PS) | agonist Emax (NR1111/NR2A; presence of PS) | agonist Emax (NR1001/NR2A; absence of PS) | agonist Emax (NR1001/NR2A; presence of PS) | agonist Emax (NR1010/NR2A; absence of PS) | agonist nHill (NR1010/NR2A; presence of PS) | agonist Emax (NR1000/NR2A; absence of PS) | agonist Emax (NR1000/NR2A; presence of PS) | agonist Emax (NR1/NR2A (NR1100); +100 μM PS) | agonist nH (NR1/NR2A (NR1100); +100 μM PS) | agonist Emax (NR1/NR2D (NR1100); +100 μM PS) | other results
1 | NCC(=O)O [glycine] | 0.87 | 1.52 ± 0.07 | 2.34 ± 0.09 | 1.03 ± 0.05 | 2.24 ± 0.29 | 1.63 ± 0.04 | 1.09 ± 0.04 | 1.63 ± 0.04 | 2.46 ± 0.23 | 1.93 ± 0.07 | 2.68 ± 0.16 | 1.89 ± 0.20 | 2.77 ± 0.40 | 1.51 ± 0.07 | 1.38 ± 0.10 | 1.48 ± 0.04 | 2.88 ± 0.27 | 2.34 | 1.03 ± 0.05 | 0.74 | agonist nH (NR1/NR2C (NR1100); +100 μM PS): 1.11 ± 0.12; agonist nH (NR1/NR2B (NR1100); +100 μM PS): 1.15 ± 0.03; agonist Emax (NR1010/NR2A; presence of PS): 1.92 ± 0.19; agonist nHill (NR1000/NR2A; absence of PS): 0.90 ± 0.01; agonist nH (NR1/NR2D (NR1100); +100 μM PS): 0.95 ± 0.01; agonist Emax (NR1/NR2D (NR1100); no PS): 1.22 ± 0.05
2 | C[C@]12CC[C@@H]3c4ccc(OS(=O)(=O)O)cc4CC[C@H]3[C@@H]1CC[C@H]2O [17α-Estradiol-3-sulfate] |  |  |  |  |  |  |  |  |  |  |  |  |  |  |  |  |  |  |  |  | Percentage change in kainate response (GluR6 kainate receptor): −7 ± 1(5) %; Percentage change in kainate response (GluR3 AMPA receptor): −17 ± 2(3) %; Percentage change in kainate response (GluR1 AMPA receptor): −22 ± 3(3) %
3 | O=C1N=c2cc([N+](=O)[O-])c([N+](=O)[O-])cc2=NC1=O [DNQX, 6,7-dinitroquinoxaline-2,3-dione] |  |  |  |  |  |  |  |  |  |  |  |  |  |  |  |  |  |  |  |  | effect on NMDA-induced neuronal death [1]: no effect
4 | C[C@]12CC[C@H](O)CC1=CC[C@@H]1[C@@H]2CC[C@]2(C)C(=O)CC[C@@H]12 [Dehydroepiandrosterone] |  |  |  |  |  |  |  |  |  |  |  |  |  |  |  |  |  |  |  |  | Percentage change in kainate response (GluR6 kainate receptor): −5 ± 1(3) %; Percentage change in kainate response (GluR3 AMPA receptor): −7 ± 5(3) %; Percentage change in kainate response (GluR1 AMPA receptor): −16 ± 3(3) %
5 | Br.COc1ccc(-c2ccc(=N)n(CCCC(=O)O)n2)cc1 [SR-95531] |  |  |  |  |  |  |  |  |  |  |  |  |  |  |  |  |  |  |  |  | effect on NMDA-induced neuronal death [1]: no effect
6 | N[C@@H](CCC(=O)O)C(=O)O [L-glutamate] | 0.87 | 1.50 ± 0.04 | 2.30 ± 0.21 | 0.98 ± 0.06 | 2.08 ± 0.21 | 1.34 ± 0.07 | 1.14 ± 0.10 | 1.77 ± 0.09 | 2.72 ± 0.07 | 1.87 ± 0.12 | 2.62 ± 0.27 | 2.10 ± 0.12 | 2.85 ± .26 | 1.48 ± 0.03 | 1.59 ± 0.15 | 1.75 ± 0.02 | 2.92 ± 0.03 | 2.3 ± 0.2 | 0.98 ± 0.06 | 0.80 | agonist Emax (NR1/NR2C (NR1100); no PS): 1.31 ± 0.02; EC50 (NR1/NR2C (NR1100); +100 μM PS): 60 nM; EC50 (NR1/NR2C (NR1100); no PS): 75 nM; agonist nHill (NR1100/NR2A; absence of PS): 1.15 ± 0.04; agonist Emax (NR1011/NR2A; absence of PS): 1.59 ± 0.03; agonist Emax (NR1/NR2B (NR1100); no PS): 1.23 ± 0.04; agonist nHill (NR1111/NR2A; absence of PS): 1.39 ± 0.02; agonist nHill (NR1001/NR2A; presence of 100 mM PS): 1.57 ± 0.18; agonist nHill (NR1010/NR2A; absence of PS): 1.32 ± 0.14; agonist nH (NR1/NR2A (NR1100); no PS): 1.15 ± 0.04; agonist Emax (NR1/NR2A (NR1100); no PS, normalized to 200 μM NMDA plus 10 μM glycine): 1.50; agonist Emax (NR1/NR2D (NR1100); no PS): 1.10 ± 0.03; EC50 (NR1/NR2D (NR1100); read-out: agonist EC50, +100 μM PS): 37 nM; EC50 (NR1/NR2D (NR1100); read-out: agonist EC50, no PS): 25 nM
